One test addresses PDGFRA (PDGFR alpha) (Homo sapiens, UniProt P16234). The test can be described thus: Z'-LYTE SelectScreen biochemical kinase assay PDGFRA (PDGFR alpha). An excerpt:
(§1) Thermo Fisher Scientific SelectScreen™ Biochemical Kinase Profiling Service Z′-LYTE™ Screening Protocol and Assay Conditions Assay Theory
(§2) The […] biochemical assay employs a fluorescence-based, coupled-enzyme format and is based on the differential sensitivity of phosphorylated and non-phosphorylated peptides to proteolytic cleavage. The peptide substrate is labeled with two fluorophores—one at each end—that make up a FRET pair. In the primary reaction, the kinase transfers the gamma-phosphate of ATP to a single tyrosine, serine or threonine residue in a synthetic FRET-peptide. In the secondary reaction, a site-specific protease recognizes and cleaves non-phosphorylated FRET-peptides. Phosphorylation of FRET-peptides suppresses cleavage by the Development Reagent. Cleavage disrupts FRET between the donor (i.e., coumarin) and acceptor (i.e., fluorescein) fluorophores on the FRET-peptide, whereas uncleaved, phosphorylated FRET-peptides maintain FRET. A ratiometric method, which calculates the ratio (Emission Ratio=Coumarin emission (445 nm)/Fluorescein emission (520 nm)) of donor emission to acceptor emission after excitation of the donor fluorophore at 400 nm, is used to quantitate reaction progress, as shown in the equation below. A significant benefit of this ratiometric method for quantitating reaction progress is the elimination of well-to-well variations in FRET-peptide concentration and signal intensities. As a result, the assay yields very high Z′-factor values (>0.7) at a low percent phosphorylation. Both cleaved and uncleaved FRET-peptides contribute to the fluorescence signals and therefore to the Emission Ratio. The extent of phosphorylation of the FRET-peptide can be calculated from the Emission Ratio. The Emission Ratio will remain low if the FRET-peptide is phosphorylated (i.e., no kinase inhibition) and will be high if the FRET-peptide is non-phosphorylated (i.e., kinase inhibition).
(§3) The Test Compounds are screened in 1% DMSO (final) in the well. For 10 point titrations, 3-fold serial dilutions are conducted from the starting concentration of the customer's choosing.
(§4) All Peptide/Kinase Mixtures are diluted to a 2× working concentration in the appropriate Kinase Buffer (see section Kinase Specific Assay Conditions for a complete description).
(§5) All ATP Solutions are diluted to a 4× working concentration in Kinase Buffer (50 mM HEPES pH 7.5, 0.01% BRIJ-35, 10 mM MgCl2, 1 mM EGTA). ATP Km apparent is previously determined using a Z″-LYTE assay.
(§6) The Development Reagent is diluted in Development Buffer (see section Kinase-Specific Assay Conditions—Direct and Cascade for a complete description).
(§7) Bar-coded Corning, low volume NBS, black 384-well plate (Corning Cat. #4514) • 1. 100 nL—100× Test Compound in 100% DMSO • 2. 2.4 μL—Kinase buffer • 3. 5 μL—2× Peptide/Kinase Mixture • 4. 2.5 μL—4×ATP Solution • 5. 30—second plate shake • 6. 60—minute Kinase Reaction incubation at room temperature • 7. 5 μL—Development Reagent Solution • 8. 30—second plate shake • 9. 60—minute Development Reaction incubation at room temperature • 10. Read on fluorescence plate reader and analyze the data Z′-LYTE Assay Controls
(§8) SelectScreen Kinase Profiling Service uses XLfit from IDBS. The dose response curve is curve fit to model number 205 (sigmoidal dose-response model).
The 2×PDGFRA (PDGFR alpha)/Tyr 04 mixture is prepared in 50 mM HEPES pH 7.5, 0.01% BRIJ-35, 10 mM MgCl2, 4 mM MnCl2, 1 mM EGTA, 2 mM DTT. The final 10 μL Kinase Reaction consists of 1.54-22.6 ng PDGFRA (PDGFR alpha) and 2 μM Tyr 04 in 50 mM HEPES pH 7.5, 0.01% BRIJ-35, 10 mM MgCl2, 2 mM MnCl2, 1 mM EGTA, 1 mM DTT. After the 1 hour Kinase Reaction incubation, 5 μL of a 1:64 dilution of Development Reagent B is added.

The target of a further test is PTK2 (FAK) (Homo sapiens, UniProt Q05397). The test can be described thus: Z'-LYTE SelectScreen biochemical kinase assay PTK2 (FAK).
Sequence of PTK2 (FAK) (Q05397 whole entry): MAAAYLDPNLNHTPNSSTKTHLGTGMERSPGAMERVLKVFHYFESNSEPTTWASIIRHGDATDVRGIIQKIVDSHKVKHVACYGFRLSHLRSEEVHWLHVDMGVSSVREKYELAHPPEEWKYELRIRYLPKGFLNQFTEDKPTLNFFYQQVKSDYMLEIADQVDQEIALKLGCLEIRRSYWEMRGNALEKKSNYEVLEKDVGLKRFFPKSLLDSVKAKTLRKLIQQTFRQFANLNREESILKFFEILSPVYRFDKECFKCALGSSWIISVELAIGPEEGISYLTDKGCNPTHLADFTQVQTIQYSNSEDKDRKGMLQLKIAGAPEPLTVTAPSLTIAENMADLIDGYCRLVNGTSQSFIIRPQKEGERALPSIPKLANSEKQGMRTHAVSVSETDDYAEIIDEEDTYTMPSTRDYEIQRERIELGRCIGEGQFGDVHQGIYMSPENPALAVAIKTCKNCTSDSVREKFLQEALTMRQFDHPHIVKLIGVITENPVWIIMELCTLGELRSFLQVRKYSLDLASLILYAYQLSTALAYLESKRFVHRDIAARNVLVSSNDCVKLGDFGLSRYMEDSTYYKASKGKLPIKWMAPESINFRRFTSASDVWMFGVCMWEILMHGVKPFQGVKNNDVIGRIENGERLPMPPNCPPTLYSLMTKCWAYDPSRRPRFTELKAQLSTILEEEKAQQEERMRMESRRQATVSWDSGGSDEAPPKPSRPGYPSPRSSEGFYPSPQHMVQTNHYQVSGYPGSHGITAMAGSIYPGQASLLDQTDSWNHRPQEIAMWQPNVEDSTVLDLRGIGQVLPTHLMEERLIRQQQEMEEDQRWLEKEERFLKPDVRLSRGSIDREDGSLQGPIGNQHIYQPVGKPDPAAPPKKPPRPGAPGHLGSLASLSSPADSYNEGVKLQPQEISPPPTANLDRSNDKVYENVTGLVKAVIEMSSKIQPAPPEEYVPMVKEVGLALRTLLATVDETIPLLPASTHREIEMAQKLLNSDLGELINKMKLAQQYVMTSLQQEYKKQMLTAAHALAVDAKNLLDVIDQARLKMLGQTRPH
Source text: as §1, §2, §3, §4, §5, §6, §7, §8
The 2×PTK2 (FAK)/Tyr 07 mixture is prepared in 50 mM HEPES pH 7.5, 0.01% BRIJ-35, 10 mM MgCl2, 1 mM EGTA. The final 10 μL Kinase Reaction consists of 12.5-100 ng PTK2 (FAK) and 2 μM Tyr 07 in 50 mM HEPES pH 7.5, 0.01% BRIJ-35, 10 mM MgCl2, 1 mM EGTA. After the 1 hour Kinase Reaction incubation, 5 μL of a 1:16 dilution of Development Reagent B is added.

Another test has as its target RET (Homo sapiens, UniProt P07949). The test can be described thus: Z'-LYTE SelectScreen biochemical kinase assay RET.
Source text: as §1, §2, §3, §4, §5, §6, §7, §8
The 2×RET/Tyr 02 mixture is prepared in 50 mM HEPES pH 7.5, 0.01% BRIJ-35, 10 mM MgCl2, 1 mM EGTA. The final 10 μL Kinase Reaction consists of 0.49-3.64 ng RET and 2 μM Tyr 02 in 50 mM HEPES pH 7.5, 0.01% BRIJ-35, 10 mM MgCl2, 1 mM EGTA. After the 1 hour Kinase Reaction incubation, 5 μL of a 1:128 dilution of Development Reagent A is added.

The target of another test is RPS6KB1 (p70S6K) (Homo sapiens, UniProt P23443). Kind of test: Z'-LYTE SelectScreen biochemical kinase assay RPS6KB1 (p70S6K).
Sequence of RPS6KB1 (p70S6K) (P23443 whole entry): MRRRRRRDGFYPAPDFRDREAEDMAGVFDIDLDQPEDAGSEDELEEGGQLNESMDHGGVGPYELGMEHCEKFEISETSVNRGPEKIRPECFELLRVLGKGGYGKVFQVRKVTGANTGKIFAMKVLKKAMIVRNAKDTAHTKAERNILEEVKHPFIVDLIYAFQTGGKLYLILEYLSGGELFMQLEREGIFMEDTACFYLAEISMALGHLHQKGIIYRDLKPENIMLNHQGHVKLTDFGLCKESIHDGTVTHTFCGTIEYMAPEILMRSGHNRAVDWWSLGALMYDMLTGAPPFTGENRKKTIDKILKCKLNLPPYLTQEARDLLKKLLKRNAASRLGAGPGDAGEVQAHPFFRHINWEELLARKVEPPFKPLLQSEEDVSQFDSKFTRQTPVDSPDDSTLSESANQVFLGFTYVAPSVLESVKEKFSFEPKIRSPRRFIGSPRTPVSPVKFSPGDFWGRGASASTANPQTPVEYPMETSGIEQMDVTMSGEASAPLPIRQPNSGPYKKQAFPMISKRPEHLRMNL
Source text: as §1, §2, §3, §4, §5, §6, §7, §8
The 2×RPS6 KB1 (p70S6K)/Ser/Thr 07 mixture is prepared in 50 mM HEPES pH 7.5, 0.01% BRIJ-35, 10 mM MgCl2, 1 mM EGTA. The final 10 μL Kinase Reaction consists of 2.87-17.7 ng RPS6 KB1 (p70S6K) and 2 μM Ser/Thr 07 in 50 mM HEPES pH 7.5, 0.01% BRIJ-35, 10 mM MgCl2, 1 mM EGTA. After the 1 hour Kinase Reaction incubation, 5 μL of a 1:45000 dilution of Development Reagent A is added.

The mark [1] stands for this setting: 10 μmolar compound concentration, ATP at Km app, read-out: PDGFRA (PDGFR alpha) inhibition.
Where [2] appears, read: read-out: % Inhibition mean PDGFRA (PDGFR alpha).
Where [3] appears, read: 10 μmolar compound concentration, ATP at Km app, read-out: PTK2 (FAK) inhibition.
Where [4] appears, read: read-out: % Inhibition mean PTK2 (FAK).
The mark [5] stands for this setting: 10 μmolar compound concentration, ATP at Km app, read-out: RET inhibition.
[6] abbreviates: read-out: % Inhibition mean RET.
Where [7] appears, read: 10 μmolar compound concentration, ATP at Km app, read-out: RPS6KB1 (p70S6K) inhibition.
The mark [8] stands for this setting: read-out: % Inhibition mean RPS6KB1 (p70S6K).

Like-named read-outs stand apart in the source and are kept apart here. Where only a bound is given, the exact number is not on record here.

Sequence of PDGFRA (PDGFR alpha) (P16234 24-1089): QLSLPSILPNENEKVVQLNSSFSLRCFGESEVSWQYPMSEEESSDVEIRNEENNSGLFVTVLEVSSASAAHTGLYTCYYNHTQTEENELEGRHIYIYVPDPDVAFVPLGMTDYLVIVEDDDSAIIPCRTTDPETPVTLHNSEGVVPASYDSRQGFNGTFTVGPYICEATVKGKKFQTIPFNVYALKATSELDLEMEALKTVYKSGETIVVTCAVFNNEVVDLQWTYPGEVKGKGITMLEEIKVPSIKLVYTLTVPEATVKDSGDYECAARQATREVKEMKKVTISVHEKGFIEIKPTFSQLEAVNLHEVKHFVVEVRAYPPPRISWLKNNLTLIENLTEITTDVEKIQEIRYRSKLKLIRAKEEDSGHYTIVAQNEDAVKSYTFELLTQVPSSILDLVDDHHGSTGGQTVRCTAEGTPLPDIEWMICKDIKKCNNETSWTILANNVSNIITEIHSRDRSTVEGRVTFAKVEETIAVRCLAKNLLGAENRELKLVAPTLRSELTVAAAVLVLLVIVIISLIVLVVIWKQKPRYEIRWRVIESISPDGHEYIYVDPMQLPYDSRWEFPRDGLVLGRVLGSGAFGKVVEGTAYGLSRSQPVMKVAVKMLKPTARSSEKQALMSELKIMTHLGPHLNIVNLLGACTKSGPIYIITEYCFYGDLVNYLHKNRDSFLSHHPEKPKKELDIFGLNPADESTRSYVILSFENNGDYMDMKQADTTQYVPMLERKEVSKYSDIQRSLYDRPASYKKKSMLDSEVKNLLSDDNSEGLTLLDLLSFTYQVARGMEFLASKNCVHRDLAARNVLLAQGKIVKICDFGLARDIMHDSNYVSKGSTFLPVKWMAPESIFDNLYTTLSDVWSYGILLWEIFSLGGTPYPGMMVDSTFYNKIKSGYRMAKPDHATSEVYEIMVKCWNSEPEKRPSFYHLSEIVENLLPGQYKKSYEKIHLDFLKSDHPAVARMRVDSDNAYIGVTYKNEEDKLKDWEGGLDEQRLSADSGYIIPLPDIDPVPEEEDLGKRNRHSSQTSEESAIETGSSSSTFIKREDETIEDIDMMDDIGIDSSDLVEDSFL
Sequence of RET (P07949 29-1114): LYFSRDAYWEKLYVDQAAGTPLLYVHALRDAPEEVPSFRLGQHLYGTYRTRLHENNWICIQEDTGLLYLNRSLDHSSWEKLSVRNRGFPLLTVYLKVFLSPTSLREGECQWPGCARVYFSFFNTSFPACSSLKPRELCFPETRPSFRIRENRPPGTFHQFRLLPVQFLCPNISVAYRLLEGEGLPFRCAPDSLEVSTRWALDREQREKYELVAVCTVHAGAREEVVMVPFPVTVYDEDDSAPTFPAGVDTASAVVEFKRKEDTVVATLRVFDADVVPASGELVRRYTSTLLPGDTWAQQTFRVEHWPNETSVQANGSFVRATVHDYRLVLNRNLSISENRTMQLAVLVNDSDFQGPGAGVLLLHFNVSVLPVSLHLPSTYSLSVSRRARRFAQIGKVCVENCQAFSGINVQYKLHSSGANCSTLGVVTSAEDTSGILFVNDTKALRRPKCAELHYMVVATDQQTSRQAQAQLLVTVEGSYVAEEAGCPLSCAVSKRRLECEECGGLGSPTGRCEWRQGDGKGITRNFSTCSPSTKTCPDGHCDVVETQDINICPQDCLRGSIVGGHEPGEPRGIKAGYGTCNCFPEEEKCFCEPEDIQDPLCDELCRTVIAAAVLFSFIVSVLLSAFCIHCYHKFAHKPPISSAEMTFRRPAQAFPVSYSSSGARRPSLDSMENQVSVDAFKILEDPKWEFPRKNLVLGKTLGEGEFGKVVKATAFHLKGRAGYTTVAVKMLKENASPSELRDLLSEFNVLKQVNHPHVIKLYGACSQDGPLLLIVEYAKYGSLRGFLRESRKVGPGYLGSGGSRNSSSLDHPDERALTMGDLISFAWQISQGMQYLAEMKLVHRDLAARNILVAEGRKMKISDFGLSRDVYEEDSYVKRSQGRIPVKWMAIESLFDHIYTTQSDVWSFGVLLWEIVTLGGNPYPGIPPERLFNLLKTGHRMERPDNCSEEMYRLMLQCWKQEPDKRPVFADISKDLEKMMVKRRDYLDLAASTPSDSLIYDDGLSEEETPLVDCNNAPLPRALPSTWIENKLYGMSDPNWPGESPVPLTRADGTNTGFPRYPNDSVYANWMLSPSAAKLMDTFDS

In general, inhibition refers to the drop in the measured response relative to a control, in per cent. For `CCn1ncc2c1CCC(Nc1nc3c(-c4ccc(F)cc4C)cccn3n1)C2` (stereo not drawn) [Example 42, (1-Ethyl-4,5,6,7-tetrahydro-1H-indazol-5-yl)-[8-(4-fluoro-2-methyl-phenyl)-[1,2,4]triazolo[1,5-a]pyridine-2-yl]-amine], the inhibition at 10 µM at PDGFRA (PDGFR alpha) (setting [1]) was below 40%; at PDGFRA (PDGFR alpha) (setting [2]) it was 12%; on PTK2 (FAK) (setting [3]) it was below 40%; at PTK2 (FAK) (setting [4]), 26%; on RET (setting [5]), below 40%; on RET (setting [6]), 29%. The inhibition at 10 µM on RPS6KB1 (p70S6K) (setting [7]) was below 40%; at RPS6KB1 (p70S6K) (setting [8]), 6%.

Consider `CCn1ncc2c1CCC(Nc1nc3c(-c4cncc(Cl)c4)cccn3n1)C2` (stereo not drawn) [Example 73, [8-(5-Chloro-pyridin-3-yl)-[1,2,4]triazolo[1,5-a]pyridine-2-yl]-(1-ethyl-4,5,6,7-tetrahydro-1H-indazol-5-yl)-amine], for which the inhibition at 10 µM at PDGFRA (PDGFR alpha) (setting [1]) was below 40%; on PDGFRA (PDGFR alpha) (setting [2]) it was 23%; at PTK2 (FAK) (setting [3]), below 40%; on PTK2 (FAK) (setting [4]) it was 25%; on RET (setting [5]), 40 to 80%; on RET (setting [6]) it was 62%. Moreover, the figures for the inhibition at 10 µM on RPS6KB1 (p70S6K) (setting [7]) and at RPS6KB1 (p70S6K) (setting [8]) were below 40% and 24%, respectively.

In the case of `CCn1ncc2c1C(C)CC(Nc1nc3c(-c4cc(F)c(F)c(F)c4)cccn3n1)C2` (stereo not drawn) [Example 49, (1-Ethyl-7-methyl-4,5,6,7-tetrahydro-1H-indazol-5-yl)-[8-(3,4,5-trifluoro-phenyl)-[1,2,4]triazolo[1,5-a]pyridine-2-yl]-amine], the inhibition at 10 µM on PDGFRA (PDGFR alpha) (setting [1]) is below 40%; at PDGFRA (PDGFR alpha) (setting [2]), 29%; on PTK2 (FAK) (setting [3]) it was below 40%; on PTK2 (FAK) (setting [4]), 32%; at RET (setting [5]) it was below 40%; on RET (setting [6]) it was 22%. The inhibition at 10 µM on RPS6KB1 (p70S6K) (setting [7]) is below 40%; at RPS6KB1 (p70S6K) (setting [8]), 33%.

Take `CC1(C)C(=O)Nc2ccc(Nc3nc4c(-c5cccc(F)c5)cccn4n3)cc21` [Cpd. 263 in WO09155551, reference compound]: the inhibition at 10 µM at PDGFRA (PDGFR alpha) (setting [1]) was above 80%; at PDGFRA (PDGFR alpha) (read-out: % Inhibition mean) it was 86%; on PTK2 (FAK) (setting [3]), above 80%; at PTK2 (FAK) (read-out: % Inhibition mean), 101%; on RET (setting [5]), above 80%; at RET (read-out: % Inhibition mean), 96%. Moreover, the inhibition at 10 µM was above 80% on RPS6KB1 (p70S6K) (setting [7]) and 93% on RPS6KB1 (p70S6K) (read-out: % Inhibition mean).

For the compound `CCn1ncc2c1CCC(Nc1nc3c(-c4cnccc4OC)cccn3n1)C2` (stereo not drawn) [Example 68, (1-Ethyl-4,5,6,7-tetrahydro-1H-indazol-5-yl)-[8-(4-methoxy-pyridin-3-yl)-[1,2,4]triazolo[1,5-a]pyridine-2-yl]-amine], the inhibition at 10 µM was below 40% on PDGFRA (PDGFR alpha) (setting [1]); 23% at PDGFRA (PDGFR alpha) (setting [2]); below 40% at PTK2 (FAK) (setting [3]); 28% on PTK2 (FAK) (setting [4]); below 40% at RET (setting [5]); 28% on RET (setting [6]). Besides, the inhibition at 10 µM is below 40% on RPS6KB1 (p70S6K) (setting [7]) and 17% at RPS6KB1 (p70S6K) (setting [8]).

Regarding `CCCn1ncc2c1CCC(Nc1nc3c(-c4ccc(F)cc4C)cccn3n1)C2` (stereo not drawn) [Example 43, [8-(4-fluoro-2-methyl-phenyl)-[1,2,4]triazolo[1,5-a]pyridine-2-yl]-(1-propyl-4,5,6,7-tetrahydro-1H-indazol-5-yl)-amine], the inhibition at 10 µM was below 40% on PDGFRA (PDGFR alpha) (setting [1]); 16% on PDGFRA (PDGFR alpha) (setting [2]); below 40% at PTK2 (FAK) (setting [3]); 19% on PTK2 (FAK) (setting [4]); below 40% at RET (setting [5]); 26% at RET (setting [6]). For the same compound, the results for the inhibition at 10 µM at RPS6KB1 (p70S6K) (setting [7]) and on RPS6KB1 (p70S6K) (setting [8]) were below 40% and 3%, respectively.

Take `Cc1cc(F)ccc1-c1cccn2nc(Nc3ccc4c(cnn4C)c3)nc12` [Example 9, [8-(4-fluoro-2-methyl-phenyl)-[1,2,4]triazolo[1,5-a]pyridine-2-yl]-(1-methyl-1H-indazol-5-yl)-amine]: the inhibition at 10 µM at PDGFRA (PDGFR alpha) (setting [1]) is 40 to 80%; on PDGFRA (PDGFR alpha) (setting [2]), 59%; at PTK2 (FAK) (setting [3]) it was below 40%; on PTK2 (FAK) (setting [4]), 7%; on RET (setting [5]), below 40%; on RET (setting [6]), 39%. Besides, the results for the inhibition at 10 µM at RPS6KB1 (p70S6K) (setting [7]) and on RPS6KB1 (p70S6K) (setting [8]) were below 40% and 3%, respectively.

Turning to `CC1(C)NC(=O)c2ccc(Nc3nc4c(-c5cccc(F)c5)cccn4n3)cc21` [Cpd. 302 in WO09155551, reference compound], the inhibition at 10 µM was above 80% at PDGFRA (PDGFR alpha) (setting [1]); 89% on PDGFRA (PDGFR alpha) (read-out: % Inhibition mean); above 80% on PTK2 (FAK) (setting [3]); 86% at PTK2 (FAK) (read-out: % Inhibition mean); above 80% at RET (setting [5]); 98% at RET (read-out: % Inhibition mean). The inhibition at 10 µM at RPS6KB1 (p70S6K) (setting [7]) is above 80%; on RPS6KB1 (p70S6K) (read-out: % Inhibition mean), 86%.

Regarding `CCCCn1ncc2c1CCC(Nc1nc3c(-c4ccc(F)cc4C)cccn3n1)C2` (stereo not drawn) [Example 46, [8-(4-fluoro-2-methyl-phenyl)-[1,2,4]triazolo[1,5-a]pyridine-2-yl]-(1-butyl-4,5,6,7-tetrahydro-1H-indazol-5-yl)-amine], the inhibition at 10 µM was below 40% on PDGFRA (PDGFR alpha) (setting [1]); 25% on PDGFRA (PDGFR alpha) (setting [2]); below 40% on PTK2 (FAK) (setting [3]); 24% on PTK2 (FAK) (setting [4]); below 40% at RET (setting [5]); 26% on RET (setting [6]). The inhibition at 10 µM at RPS6KB1 (p70S6K) (setting [7]) is below 40%; at RPS6KB1 (p70S6K) (setting [8]) it was 6%.

For the origin of these results see US11339161B2, “Triazolo pyridines as modulators of gamma-secretase” (Boehringer Ingelheim International GmbH, priority 2017, dated 2022).
